Experimental data reported in publication PMC5063900, “A phase 1 study of the safety, tolerability, pharmacokinetics, and pharmacodynamics of TAK-063, a selective PDE10A inhibitor” (Psychopharmacology, 2016).

Experiment: Treatment-emergent adverse events, phase 1 single-rising-dose study in healthy subjects
Type: in vivo, human
Method: Healthy Japanese and non-Japanese subjects between 18 and 55 years of age were recruited to participate in the study. Criteria for exclusion included prior treatment with any investigational compound within 30 days of the first TAK-063 dose, a positive test for drugs of abuse or nicotine, and an increased risk for suicide. […] Following a washout period of 7 days, subjects in cohort 3 (100 mg) received the same dose (100 mg) but under fed conditions.
The study assessed safety and tolerability in all subjects for the 4-day study duration. The primary endpoints were the percentage of subjects who experienced at least one treatment-emergent adverse event (TEAE), as well as the percentage of subjects who met predefined criteria for safety laboratory tests, vital sign measurements, and safety parameters following TAK-063 administration. The secondary endpoints were PK parameters for TAK-063 and M-I, assessing drug exposure at each dose, and the effect of food coadministration on TAK-063 PK. Exploratory endpoints included the effects of TAK-063 on domains of cognition as assessed by a computerized battery, CNS Vital Signs (CNSVS).
Adverse events, clinical laboratory tests, vital signs, 12-lead electrocardiograms (ECGs), and Columbia-Suicide Severity Rating Scale (C-SSRS) were all monitored. Intensity of AEs was classified as mild, moderate, or severe, and each AE was classified as to its relation to study drug.
Laboratory tests evaluated hematology, serum chemistry, urine, and hormone levels. Vital signs and ECGs were collected at screening, check-in, within 1 h predose, serially postdose, and at study exit, while the C-SSRS was administered at screening, check-in, and study exit. Any events reported on the C-SSRS and clinically significant laboratory abnormalities were reported as AEs.

[1] = all subjects, single 30 mg dose (n = 11)
[2] = all subjects, single 100 mg dose (n = 11)
[3] = all subjects, single 300 mg dose (n = 11)
[4] = all subjects, single 1000 mg dose (n = 11)
[5] = non-Japanese subjects, TAK-063 Total (n = 36)
[6] = non-Japanese subjects, single 3 mg dose (n = 6)
[7] = non-Japanese subjects, single 10 mg dose (n = 6)
[8] = non-Japanese subjects, single 30 mg dose (n = 6)
[9] = non-Japanese subjects, single 100 mg dose (n = 6)
[10] = non-Japanese subjects, single 300 mg dose (n = 6)
[11] = non-Japanese subjects, single 1000 mg dose (n = 6)

For `COc1cn(-c2ccc(-n3cccn3)cc2F)nc(-c2ccnn2-c2ccccc2)c1=O` [TAK-063], the “Adverse event: Somnolence” value [1] was 4 (36.4) n (%), the “Adverse event: Vomiting” value [1] was 0 n (%) and the “Adverse event: Anxiety” value [2] was 0 n (%). The “Adverse event: Blurred vision” value [2] was 0 n (%), the “Adverse event: Dizziness” value [2] was 0 n (%) and the “Adverse event: Dysarthria” value [2] was 0 n (%). For the same compound, the “Adverse event: Epistaxis” value [2] was 0 n (%), the “Adverse event: Headache” value [2] was 1 (9.1) n (%) and the “Adverse event: Hypotension” value [2] was 1 (9.1) n (%). The “Adverse event: Muscle tightness” value [2] was 0 n (%), the “Adverse event: Nausea” value [2] was 0 n (%) and the “Adverse event: Orthostatic hypotension” value [2] was 1 (9.1) n (%). For the same compound, the “Adverse event: Orthostatic tachycardia” value [2] was 2 (18.2) n (%), the “Adverse event: Somnolence” value [2] was 7 (63.6) n (%) and the “Adverse event: Vomiting” value [2] was 1 (9.1) n (%). The “Adverse event: Anxiety” value [3] was 0 n (%), the “Adverse event: Blurred vision” value [3] was 0 n (%) and the “Adverse event: Dizziness” value [3] was 1 (9.1) n (%). The “Adverse event: Dysarthria” value [3] was 0 n (%), the “Adverse event: Epistaxis” value [3] was 0 n (%) and the “Adverse event: Headache” value [3] was 1 (9.1) n (%). The “Adverse event: Hypotension” value [3] was 0 n (%), the “Adverse event: Muscle tightness” value [3] was 0 n (%) and the “Adverse event: Nausea” value [3] was 0 n (%). The “Adverse event: Orthostatic hypotension” value [3] was 1 (9.1) n (%), the “Adverse event: Orthostatic tachycardia” value [3] was 1 (9.1) n (%) and the “Adverse event: Somnolence” value [3] was 5 (45.5) n (%). For the same compound, the “Adverse event: Vomiting” value [3] was 1 (9.1) n (%), the “Adverse event: Anxiety” value [4] was 1 (9.1) n (%) and the “Adverse event: Blurred vision” value [4] was 1 (9.1) n (%). For the same compound, the “Adverse event: Dizziness” value [4] was 1 (9.1) n (%), the “Adverse event: Dysarthria” value [4] was 1 (9.1) n (%) and the “Adverse event: Epistaxis” value [4] was 0 n (%). For the same compound, the “Adverse event: Headache” value [4] was 0 n (%), the “Adverse event: Hypotension” value [4] was 0 n (%) and the “Adverse event: Muscle tightness” value [4] was 0 n (%). For the same compound, the “Adverse event: Nausea” value [4] was 1 (9.1) n (%), the “Adverse event: Orthostatic hypotension” value [4] was 5 (45.5) n (%) and the “Adverse event: Orthostatic tachycardia” value [4] was 7 (63.6) n (%). For the same compound, the “Adverse event: Somnolence” value [4] was 6 (54.5) n (%), the “Adverse event: Vomiting” value [4] was 1 (9.1) n (%) and the “Total incidence of TEAEs” value (non-Japanese subjects treated with TAK-063) was 52.8%. The “Adverse event: Anxiety” value [5] was 1 (2.8) n (%), the “Adverse event: Blurred vision” value [5] was 1 (2.8) n (%) and the “Adverse event: Dizziness” value [5] was 2 (5.6) n (%). For the same compound, the “Adverse event: Dysarthria” value [5] was 1 (2.8) n (%), the “Adverse event: Headache” value [5] was 1 (2.8) n (%) and the “Adverse event: Hypotension” value [5] was 1 (2.8) n (%). The “Adverse event: Nausea” value [5] was 2 (5.6) n (%), the “Adverse event: Orthostatic hypotension” value [5] was 3 (8.3) n (%) and the “Adverse event: Orthostatic tachycardia” value [5] was 8 (22.2) n (%). For the same compound, the “Adverse event: Somnolence” value [5] was 12 (33.3) n (%), the “Adverse event: Vomiting” value [5] was 1 (2.8) n (%) and the “Adverse event: Anxiety” value [6] was 0 n (%). For the same compound, the “Adverse event: Blurred vision” value [6] was 0 n (%), the “Adverse event: Dizziness” value [6] was 0 n (%) and the “Adverse event: Dysarthria” value [6] was 0 n (%). For the same compound, the “Adverse event: Headache” value [6] was 0 n (%), the “Adverse event: Hypotension” value [6] was 0 n (%) and the “Adverse event: Nausea” value [6] was 0 n (%). For the same compound, the “Adverse event: Orthostatic hypotension” value [6] was 0 n (%), the “Adverse event: Orthostatic tachycardia” value [6] was 2 (33.3) n (%) and the “Adverse event: Somnolence” value [6] was 0 n (%). For the same compound, the “Adverse event: Vomiting” value [6] was 0 n (%), the “Adverse event: Anxiety” value [7] was 0 n (%) and the “Adverse event: Blurred vision” value [7] was 0 n (%). For the same compound, the “Adverse event: Dizziness” value [7] was 0 n (%), the “Adverse event: Dysarthria” value [7] was 0 n (%) and the “Adverse event: Headache” value [7] was 0 n (%). For the same compound, the “Adverse event: Hypotension” value [7] was 0 n (%), the “Adverse event: Nausea” value [7] was 0 n (%) and the “Adverse event: Orthostatic hypotension” value [7] was 0 n (%). The “Adverse event: Orthostatic tachycardia” value [7] was 0 n (%), the “Adverse event: Somnolence” value [7] was 0 n (%) and the “Adverse event: Vomiting” value [7] was 0 n (%). For the same compound, the “Adverse event: Anxiety” value [8] was 0 n (%), the “Adverse event: Blurred vision” value [8] was 0 n (%) and the “Adverse event: Dizziness” value [8] was 1 (16.7) n (%). The “Adverse event: Dysarthria” value [8] was 0 n (%), the “Adverse event: Headache” value [8] was 0 n (%) and the “Adverse event: Hypotension” value [8] was 0 n (%). The “Adverse event: Nausea” value [8] was 2 (33.3) n (%), the “Adverse event: Orthostatic hypotension” value [8] was 0 n (%) and the “Adverse event: Orthostatic tachycardia” value [8] was 0 n (%). For the same compound, the “Adverse event: Somnolence” value [8] was 3 (50.0) n (%), the “Adverse event: Vomiting” value [8] was 0 n (%) and the “Adverse event: Anxiety” value [9] was 0 n (%). For the same compound, the “Adverse event: Blurred vision” value [9] was 0 n (%), the “Adverse event: Dizziness” value [9] was 0 n (%) and the “Adverse event: Dysarthria” value [9] was 0 n (%). For the same compound, the “Adverse event: Headache” value [9] was 0 n (%), the “Adverse event: Hypotension” value [9] was 1 (16.7) n (%) and the “Adverse event: Nausea” value [9] was 0 n (%). The “Adverse event: Orthostatic hypotension” value [9] was 0 n (%), the “Adverse event: Orthostatic tachycardia” value [9] was 2 (33.3) n (%) and the “Adverse event: Somnolence” value [9] was 3 (50.0) n (%). For the same compound, the “Adverse event: Vomiting” value [9] was 0 n (%), the “Adverse event: Anxiety” value [10] was 0 n (%) and the “Adverse event: Blurred vision” value [10] was 0 n (%). For the same compound, the “Adverse event: Dizziness” value [10] was 1 (16.7) n (%), the “Adverse event: Dysarthria” value [10] was 0 n (%) and the “Adverse event: Headache” value [10] was 1 (16.7) n (%). The “Adverse event: Hypotension” value [10] was 0 n (%), the “Adverse event: Nausea” value [10] was 0 n (%) and the “Adverse event: Orthostatic hypotension” value [10] was 0 n (%). For the same compound, the “Adverse event: Orthostatic tachycardia” value [10] was 0 n (%), the “Adverse event: Somnolence” value [10] was 3 (50.0) n (%) and the “Adverse event: Vomiting” value [10] was 1 (16.7) n (%). The “Adverse event: Anxiety” value [11] was 1 (16.7) n (%), the “Adverse event: Blurred vision” value [11] was 1 (16.7) n (%) and the “Adverse event: Dizziness” value [11] was 0 n (%). For the same compound, the “Adverse event: Dysarthria” value [11] was 1 (16.7) n (%), the “Adverse event: Headache” value [11] was 0 n (%) and the “Adverse event: Hypotension” value [11] was 0 n (%). The “Adverse event: Nausea” value [11] was 0 n (%), the “Adverse event: Orthostatic hypotension” value [11] was 3 (50.0) n (%) and the “Adverse event: Orthostatic tachycardia” value [11] was 4 (66.7) n (%). The “Adverse event: Somnolence” value [11] was 3 (50.0) n (%), the “Adverse event: Vomiting” value [11] was 0 n (%) and the “Association with hyperprolactinemia, hyperglycemia, or other metabolic disturbances” value (single dose) was “not associated”. For the same compound, the “Deaths, serious AEs” value (single doses 3 to 1000 mg) was “No deaths or other serious AEs were reported”, the Maximum tolerated dose (single doses up to 1000 mg) was “not defined” and the Safety and tolerability (single doses up to 1000 mg) was “safe and well tolerated”.
